System: tubulin (αβ-tubulin; colchicine site in β-subunit)
Assay: [3H]colchicine competition on purified tubulin
Format: biochemical

| Structure (SMILES) | IC50 [µM] |
| --- | --- |
| COc1ccc(/C=C\c2cc(OC)c(OC)c(OC)c2)cc1O [combretastatin A-4] | 1.2 |
| O=c1cc(-c2ccccc2)[nH]c2ccc3c(ccn3CC3CC3)c12 [MG-2477, 3-cyclopropylmethyl-7-phenyl-3H-pyrrolo[3,2-f]quinolin-9(6H)-one] | 0.9 |

Source: PMC3234688 (2011)
